# Data reported in patent US7884136B2, “Modified-release formulations of a bupropion salt” (Biovail Laboratories International S.R.L., priority 2005, dated 2011).
# Assay: Accelerated stability study of bupropion HBr, closed bottles, 40° C./75% RH, 3 and 6 months, HPLC
# Format: physicochemical
# Conditions: 40° C., R.H. 75%; for Chromatographic purity B) (HPLC) 4) 2-N-(tert-Butyl)-aminopropiophenone / Chromatographic purity B) (HPLC) 5) single unknown impurity (each): LOQ 0.02%, LOD 0.002%; for Chromatographic purity A) (HPLC) 1) 3′-Chloropropiophenone / Chromatographic purity A) (HPLC) 3) 3′-Chlorobenzoic acid / Chromatographic purity A) (HPLC) 2) 3′-Chloro-2-bromopropiophenone: LOQ 0.05%; for Chromatographic purity A) (HPLC) 1) 3′-Chloropropiophenone / Chromatographic purity A) (HPLC) 3) 3′-Chlorobenzoic acid: LOD 0.01%; for Chromatographic purity A) (HPLC) 2) 3′-Chloro-2-bromopropiophenone: LOD 0.04%
# Procedure: The samples were prepared in closed bottles and placed in the stability chamber. HPLC analysis was conducted on the samples prior to placing them in the stability chamber (time 0), and after 3 months and 6 months. The amounts of the main degradation products present at time 0 were compared with those amounts present after 3 months and 6 months. […] For each sample tested, at each time period, two different HPLC assays were run. The first assay labelled chromatographic purity A, measured the percentage of three impurities 3′chloropropiophenone, 3′-Chloro-2-bromopropiophenone and 3′-Chlorobenzoic acid. The second assay, labelled chromatographic purity B, measured the percentage of 2-N-(tert-Butyl)-aminopropiophenone, a single unknown impurity and the total unknown impurities.
smiles,measurement,setting,value
Br.CC(NC(C)(C)C)C(=O)c1cccc(Cl)c1 (stereo not drawn) [Bupropion•HBr],Assay (HPLC),"Batch D00894, 3 month",99.6 % on d.b.
same,Chromatographic purity (HPLC: A + B) Total impurities,"Batch D00894, 3 month",0.1%
same,Chromatographic purity B) (HPLC) 6) total unknown impurities,"Batch D00894, 3 month",6) 0.06%
same,Description (white or almost white crystalline powder),"Batch D00894, 3 month",conform
same,"Identification IR, HPLC","Batch D00894, 3 month",positive
same,Water content (K.F.),"Batch D00894, 3 month",0.07%
same,Chromatographic purity B) (HPLC) 4) 2-N-(tert-Butyl)-aminopropiophenone,"Batch D00894, 3 month",4) 0.03%
same,Chromatographic purity B) (HPLC) 5) single unknown impurity (each),"Batch D00894, 3 month",5) 0.04%
same,Chromatographic purity A) (HPLC) 1) 3′-Chloropropiophenone,"Batch D00894, 3 month",1) n.q.
same,Chromatographic purity A) (HPLC) 3) 3′-Chlorobenzoic acid,"Batch D00894, 3 month",3) n.q.
same,Chromatographic purity A) (HPLC) 2) 3′-Chloro-2-bromopropiophenone,"Batch D00894, 3 month",2) n.d.
same,Assay (HPLC),"Batch D00894, 6 months",99.7 % on d.b.
same,Chromatographic purity (HPLC: A + B) Total impurities,"Batch D00894, 6 months",0.1%
same,Chromatographic purity B) (HPLC) 6) total unknown impurities,"Batch D00894, 6 months",6) 0.02%
same,Description (white or almost white crystalline powder),"Batch D00894, 6 months",conform
same,"Identification IR, HPLC","Batch D00894, 6 months",positive
same,Water content (K.F.),"Batch D00894, 6 months",0.08%
same,Chromatographic purity B) (HPLC) 4) 2-N-(tert-Butyl)-aminopropiophenone,"Batch D00894, 6 months",4) 0.04%
same,Chromatographic purity B) (HPLC) 5) single unknown impurity (each),"Batch D00894, 6 months",5) n.q.
same,Chromatographic purity A) (HPLC) 1) 3′-Chloropropiophenone,"Batch D00894, 6 months",1) 0.05%
same,Chromatographic purity A) (HPLC) 3) 3′-Chlorobenzoic acid,"Batch D00894, 6 months",3) n.q.
same,Chromatographic purity A) (HPLC) 2) 3′-Chloro-2-bromopropiophenone,"Batch D00894, 6 months",2) n.d.
same,Assay (HPLC),"Batch D00894, time 0",99.6 % on d.b.
same,Chromatographic purity (HPLC: A + B) Total impurities,"Batch D00894, time 0",0.1%
same,Chromatographic purity B) (HPLC) 6) total unknown impurities,"Batch D00894, time 0",6) 0.04%
same,Description (white or almost white crystalline powder),"Batch D00894, time 0",conform
same,"Identification IR, HPLC","Batch D00894, time 0",positive
same,Water content (K.F.),"Batch D00894, time 0",0.05%
same,Chromatographic purity B) (HPLC) 4) 2-N-(tert-Butyl)-aminopropiophenone,"Batch D00894, time 0",4) 0.04%
same,Chromatographic purity B) (HPLC) 5) single unknown impurity (each),"Batch D00894, time 0",5) 0.04%
same,Chromatographic purity A) (HPLC) 1) 3′-Chloropropiophenone,"Batch D00894, time 0",1) n.d.
same,Chromatographic purity A) (HPLC) 3) 3′-Chlorobenzoic acid,"Batch D00894, time 0",3) n.q.
same,Chromatographic purity A) (HPLC) 2) 3′-Chloro-2-bromopropiophenone,"Batch D00894, time 0",2) n.d.
same,Assay (HPLC),"Batch D00895, 3 month",100.7 % on d.b.
same,Chromatographic purity (HPLC: A + B) Total impurities,"Batch D00895, 3 month",0.1%
same,Chromatographic purity B) (HPLC) 6) total unknown impurities,"Batch D00895, 3 month",6) 0.05%
same,Description (white or almost white crystalline powder),"Batch D00895, 3 month",conform
same,"Identification IR, HPLC","Batch D00895, 3 month",positive
same,Water content (K.F.),"Batch D00895, 3 month",0.07%
same,Chromatographic purity B) (HPLC) 4) 2-N-(tert-Butyl)-aminopropiophenone,"Batch D00895, 3 month",4) 0.03%
same,Chromatographic purity B) (HPLC) 5) single unknown impurity (each),"Batch D00895, 3 month",5) 0.04%
same,Chromatographic purity A) (HPLC) 1) 3′-Chloropropiophenone,"Batch D00895, 3 month",1) n.q.
same,Chromatographic purity A) (HPLC) 3) 3′-Chlorobenzoic acid,"Batch D00895, 3 month",3) 0.05%
same,Chromatographic purity A) (HPLC) 2) 3′-Chloro-2-bromopropiophenone,"Batch D00895, 3 month",2) n.d.
same,Assay (HPLC),"Batch D00895, 6 months",99.7 % on d.b.
same,Chromatographic purity (HPLC: A + B) Total impurities,"Batch D00895, 6 months",0.1%
same,Chromatographic purity B) (HPLC) 6) total unknown impurities,"Batch D00895, 6 months",6) 0.02%
same,Description (white or almost white crystalline powder),"Batch D00895, 6 months",conform
same,"Identification IR, HPLC","Batch D00895, 6 months",positive
same,Water content (K.F.),"Batch D00895, 6 months",0.07%
same,Chromatographic purity B) (HPLC) 4) 2-N-(tert-Butyl)-aminopropiophenone,"Batch D00895, 6 months",4) 0.04%
same,Chromatographic purity B) (HPLC) 5) single unknown impurity (each),"Batch D00895, 6 months",5) n.q.
same,Chromatographic purity A) (HPLC) 1) 3′-Chloropropiophenone,"Batch D00895, 6 months",1) 0.05%
same,Chromatographic purity A) (HPLC) 3) 3′-Chlorobenzoic acid,"Batch D00895, 6 months",3) n.q.
same,Chromatographic purity A) (HPLC) 2) 3′-Chloro-2-bromopropiophenone,"Batch D00895, 6 months",2) n.d.
same,Assay (HPLC),"Batch D00895, time 0",99.2 % on d.b.
same,Chromatographic purity (HPLC: A + B) Total impurities,"Batch D00895, time 0",0.1%
same,Chromatographic purity B) (HPLC) 6) total unknown impurities,"Batch D00895, time 0",6) 0.04%
same,Description (white or almost white crystalline powder),"Batch D00895, time 0",conform
same,"Identification IR, HPLC","Batch D00895, time 0",positive
same,Water content (K.F.),"Batch D00895, time 0",0.04%
same,Chromatographic purity B) (HPLC) 4) 2-N-(tert-Butyl)-aminopropiophenone,"Batch D00895, time 0",4) 0.04%
same,Chromatographic purity B) (HPLC) 5) single unknown impurity (each),"Batch D00895, time 0",5) 0.04%
same,Chromatographic purity A) (HPLC) 1) 3′-Chloropropiophenone,"Batch D00895, time 0",1) n.d.
same,Chromatographic purity A) (HPLC) 3) 3′-Chlorobenzoic acid,"Batch D00895, time 0",3) n.q.
same,Chromatographic purity A) (HPLC) 2) 3′-Chloro-2-bromopropiophenone,"Batch D00895, time 0",2) n.d.
